In article PMC4923583, “A Phase I/II Clinical Trial of Belinostat (PXD101) in Combination with Doxorubicin in Patients with Soft Tissue Sarcomas” (Sarcoma, 2016):
Where “and” joins values, the source holds several entries; their conditions need not be identical. Identical values can stand only once.

Columns and labels:
human tumour xenografts = conditions: cited from earlier work
[1] = system: solid tumours and haematological neoplasms; parameters: method as in PMID 18245542, PMID 18510700; conditions: ref [10], [11], cited from earlier work
[2] = system: patients with STS and other solid tumours; assay: Dose escalation: maximum tolerated dose (MTD) and dose limiting toxicities (DLT); format: in vivo; conditions: highest tested dose level (cohort 4)
Experimental: Belinostat was administered as a 30-minute intravenous infusion every 24 hours on days 1–5 and on day 5 in combination with doxorubicin, in a 3-week schedule, and doxorubicin was given after belinostat. The dose escalation schedule was as follows: belinostat 600 mg/m^2 and 50 mg/m^2 doxorubicin (cohort 1), 600 mg/m^2 and 75 mg/m^2 doxorubicin (cohort 2), 800 mg/m^2 and 75 mg/m^2 doxorubicin (cohort 3), and 1000 mg/m^2 and 75 mg/m^2 doxorubicin (cohort 4).
Patients who achieved clinical benefit from the treatment (objective response or stable disease) could continue belinostat treatment beyond cycle 6. If the maximum cumulative dose of doxorubicin 450 mg/m^2 was reached, the treatment would continue with belinostat as monotherapy. In the phase I part, at least 3 patients were treated at each dose level. If a DLT was found in one of 3 patients, the cohort was expanded to a total of 6 patients.
Adverse events were graded using the NCI common terminology criteria for adverse events (NCI-CTCAE) version 3.0. […]

[3] = Pharmacokinetic analyses, plasma, cycle 1 day 4 and day 5
Experimental: (§1) The following PK parameters were determined: elimination half-life (t 1/2), maximum concentration (C max), time to maximum concentration (t max), area under the curve (AUC0−tlast and AUC∞), elimination rate constant (λz), and volume of distribution (V c and V ss). Blood sampling for belinostat alone was performed on cycle 1 day 4 (before treatment and 0 min, 5 min, 15 min, 30 min, 1 h, 2 h, 2 h 15 min, 2 h 30 min, 3 h, 4 h, 6 h, 8 h, and 24 h after treatment).

soft tissue sarcoma = conditions: single-agent doxorubicin, ref [6], cited from earlier work
[4] = in vivo
Experimental: as §1

In the case of `O=C(/C=C/c1cccc(S(=O)(=O)Nc2ccccc2)c1)NO` [belinostat], the “Toxicity to the host mice” value (human tumour xenografts; mouse, in vivo) is given as “without apparent toxicity”, the “Growth of human tumour xenografts” value (human tumour xenografts; ref [9]) is given as “inhibits growth” and the “Maximum tolerated dose (MTD), monotherapy” value ([1]; 5 consecutive days repeated in a 3-week schedule) is given as 1000 mg/m^2/d. The “Duration of prolonged stable disease (SD) in 2 STS patients” value ([1]; belinostat monotherapy, one value per patient) was 7 months and 14 months, the “MTD of belinostat in combination with doxorubicin” value ([2]; 30-minute IV infusion days 1–5, 3-week schedule, doxorubicin on day 5) was 1000 mg/m^2/d and the clearance ([3]; 600 mg/m^2 Bel + 50 mg/m^2 doxorubicin, Day 5 (with doxorubicin), N: 1, individual parameter presented) was 1770 mL/min. The t last ([3]; Median (min–max), 600 mg/m^2 Bel + 50 mg/m^2 doxorubicin, Day 4 (Bel alone), N = 3) was 24.5 (22.4–24.6) h, the t last ([3]; Median (min–max), 600 mg/m^2 Bel + 50 mg/m^2 doxorubicin, Day 5 (with doxorubicin), N = 3) was 17.0 (17.0–20.1) h and the t last ([3]; Median (min–max), 600 mg/m^2 Bel + 75 mg/m^2 doxorubicin, Day 4 (Bel alone), N = 7) was 24.0 (8.55–24.5) h. The t last ([3]; Median (min–max), 600 mg/m^2 Bel + 75 mg/m^2 doxorubicin, Day 5 (with doxorubicin), N = 6) was 24.5 (16.2–24.7) h, the t last ([3]; Median (min–max), 800 mg/m^2 Bel + 75 mg/m^2 doxorubicin, Day 4 (Bel alone), N = 8) was 23.7 (8.47–24.6) h and the t last ([3]; Median (min–max), 800 mg/m^2 Bel + 75 mg/m^2 doxorubicin, Day 5 (with doxorubicin), N = 6) was 15.1 (8.50–24.6) h. The t last ([3]; Median (min–max), 1000 mg/m^2 Bel + 75 mg/m^2 doxorubicin, Day 4 (Bel alone), N = 21) was 8.65 (1.05–24.0) h, the t last ([3]; Median (min–max), 1000 mg/m^2 Bel + 75 mg/m^2 doxorubicin, Day 5 (with doxorubicin), N = 19) was 8.72 (8.50–24.7) h and the “Dose proportionality of pharmacokinetics” value ([3]; belinostat 600–1000 mg/m^2) was “dose-proportional pharmacokinetics”. For the same compound, the “Effect of coadministration of doxorubicin on belinostat exposure” value ([3]; day 5 vs day 4) was “no evidence that coadministration of doxorubicin had any effect”, the AUC(0-t) ([3]; human, plasma, intravenous, 600 mg/m^2, AUC0–tlast, 600 mg/m^2 Bel + 50 mg/m^2 doxorubicin, Day 4 (Bel alone), N = 3) was 10.9 µg·h/mL and the AUC(0-t) ([3]; human, plasma, intravenous, 600 mg/m^2, AUC0–tlast, 600 mg/m^2 Bel + 75 mg/m^2 doxorubicin, Day 4 (Bel alone), N = 7) was 9.67 µg·h/mL. For the same compound, the Cmax ([3]; human, plasma, intravenous, 600 mg/m^2, C max, 600 mg/m^2 Bel + 50 mg/m^2 doxorubicin, Day 4 (Bel alone), N = 3) was 21.1 µg/mL, the Cmax ([3]; human, plasma, intravenous, 600 mg/m^2, C max, 600 mg/m^2 Bel + 75 mg/m^2 doxorubicin, Day 4 (Bel alone), N = 7) was 16.8 µg/mL and the clearance ([3]; human, plasma, intravenous, 600 mg/m^2, CL, 600 mg/m^2 Bel + 75 mg/m^2 doxorubicin, Day 4 (Bel alone), N: 3) was 2150 mL/min. The Vd ([3]; human, plasma, intravenous, 600 mg/m^2, V ss, 600 mg/m^2 Bel + 75 mg/m^2 doxorubicin, Day 4 (Bel alone), N: 3) was 149 L, the half-life ([3]; human, plasma, intravenous, 600 mg/m^2, t 1/2, 600 mg/m^2 Bel + 75 mg/m^2 doxorubicin, Day 4 (Bel alone), N: 3) was 3.77 h and the Tmax ([3]; human, plasma, intravenous, 600 mg/m^2, t max, Median (min–max), 600 mg/m^2 Bel + 50 mg/m^2 doxorubicin, Day 4 (Bel alone), N = 3) was 0.533 h. The Tmax ([3]; human, plasma, intravenous, 600 mg/m^2, t max, Median (min–max), 600 mg/m^2 Bel + 75 mg/m^2 doxorubicin, Day 4 (Bel alone), N = 7) was 0.567 h, the AUC(0-t) ([3]; human, plasma, intravenous, 800 mg/m^2, AUC0–tlast, 800 mg/m^2 Bel + 75 mg/m^2 doxorubicin, Day 4 (Bel alone), N = 8) was 12.2 µg·h/mL and the Cmax ([3]; human, plasma, intravenous, 800 mg/m^2, C max, 800 mg/m^2 Bel + 75 mg/m^2 doxorubicin, Day 4 (Bel alone), N = 8) was 21.4 µg/mL. For the same compound, the clearance ([3]; human, plasma, intravenous, 800 mg/m^2, CL, 800 mg/m^2 Bel + 75 mg/m^2 doxorubicin, Day 4 (Bel alone), N: 4) was 2120 mL/min, the Vd ([3]; human, plasma, intravenous, 800 mg/m^2, V ss, 800 mg/m^2 Bel + 75 mg/m^2 doxorubicin, Day 4 (Bel alone), N: 4) was 107 L and the half-life ([3]; human, plasma, intravenous, 800 mg/m^2, t 1/2, 800 mg/m^2 Bel + 75 mg/m^2 doxorubicin, Day 4 (Bel alone), N: 4) was 1.91 h. It also gave a Tmax ([3]; human, plasma, intravenous, 800 mg/m^2, t max, Median (min–max), 800 mg/m^2 Bel + 75 mg/m^2 doxorubicin, Day 4 (Bel alone), N = 8) of 0.533 h, a half-life ([3]; human, plasma, intravenous, 1000 mg/m2, Geometric mean apparent elimination half-life (t 1/2), belinostat 600, 800 and 1000 mg/m^2, day 4 and day 5, range across groups) of 1.9 to 4.8 h and an AUC(0-t) ([3]; human, plasma, intravenous, 1000 mg/m^2, AUC0–tlast, 1000 mg/m^2 Bel + 75 mg/m^2 doxorubicin, Day 4 (Bel alone), N = 21) of 23.1 µg·h/mL. It also gave a Cmax ([3]; human, plasma, intravenous, 1000 mg/m^2, C max, 1000 mg/m^2 Bel + 75 mg/m^2 doxorubicin, Day 4 (Bel alone), N = 21) of 41.1 µg/mL, a clearance ([3]; human, plasma, intravenous, 1000 mg/m^2, CL, 1000 mg/m^2 Bel + 75 mg/m^2 doxorubicin, Day 4 (Bel alone), N: 18) of 1360 mL/min and a Vd ([3]; human, plasma, intravenous, 1000 mg/m^2, V ss, 1000 mg/m^2 Bel + 75 mg/m^2 doxorubicin, Day 4 (Bel alone), N: 18) of 51 L. For the same compound, the half-life ([3]; human, plasma, intravenous, 1000 mg/m^2, t 1/2, 1000 mg/m^2 Bel + 75 mg/m^2 doxorubicin, Day 4 (Bel alone), N: 18) was 1.48 h, the Tmax ([3]; human, plasma, intravenous, 1000 mg/m^2, t max, Median (min–max), 1000 mg/m^2 Bel + 75 mg/m^2 doxorubicin, Day 4 (Bel alone), N = 21) was 0.617 h and the AUC(0-t) ([3]; human, plasma, intravenous, AUC0–tlast, 600 mg/m^2 Bel + 50 mg/m^2 doxorubicin, Day 5 (with doxorubicin), N = 3) was 10.4 µg·h/mL. The AUC(0-t) ([3]; human, plasma, intravenous, AUC0–tlast, 600 mg/m^2 Bel + 75 mg/m^2 doxorubicin, Day 5 (with doxorubicin), N = 6) was 10.4 µg·h/mL, the AUC(0-t) ([3]; human, plasma, intravenous, AUC0–tlast, 800 mg/m^2 Bel + 75 mg/m^2 doxorubicin, Day 5 (with doxorubicin), N = 6) was 14.6 µg·h/mL and the AUC(0-t) ([3]; human, plasma, intravenous, AUC0–tlast, 1000 mg/m^2 Bel + 75 mg/m^2 doxorubicin, Day 5 (with doxorubicin), N = 19) was 22.1 µg·h/mL. It also gave a Cmax ([3]; human, plasma, intravenous, C max, 600 mg/m^2 Bel + 50 mg/m^2 doxorubicin, Day 5 (with doxorubicin), N = 3) of 18.3 µg/mL, a Cmax ([3]; human, plasma, intravenous, C max, 600 mg/m^2 Bel + 75 mg/m^2 doxorubicin, Day 5 (with doxorubicin), N = 6) of 17.4 µg/mL and a Cmax ([3]; human, plasma, intravenous, C max, 800 mg/m^2 Bel + 75 mg/m^2 doxorubicin, Day 5 (with doxorubicin), N = 6) of 26.4 µg/mL. The Cmax ([3]; human, plasma, intravenous, C max, 1000 mg/m^2 Bel + 75 mg/m^2 doxorubicin, Day 5 (with doxorubicin), N = 19) was 37 µg/mL, the clearance ([3]; human, plasma, intravenous, CL, 600 mg/m^2 Bel + 75 mg/m^2 doxorubicin, Day 5 (with doxorubicin), N: 3) was 1850 mL/min and the clearance ([3]; human, plasma, intravenous, CL, 800 mg/m^2 Bel + 75 mg/m^2 doxorubicin, Day 5 (with doxorubicin), N: 4) was 1520 mL/min. For the same compound, the clearance ([3]; human, plasma, intravenous, CL, 1000 mg/m^2 Bel + 75 mg/m^2 doxorubicin, Day 5 (with doxorubicin), N = 19) was 1420 mL/min, the Vd ([3]; human, plasma, intravenous, V ss, 600 mg/m^2 Bel + 50 mg/m^2 doxorubicin, Day 5 (with doxorubicin), N: 1, individual parameter presented) was 72.8 L and the Vd ([3]; human, plasma, intravenous, V ss, 600 mg/m^2 Bel + 75 mg/m^2 doxorubicin, Day 5 (with doxorubicin), N: 3) was 90.8 L. The Vd ([3]; human, plasma, intravenous, V ss, 800 mg/m^2 Bel + 75 mg/m^2 doxorubicin, Day 5 (with doxorubicin), N: 4) was 58.3 L, the Vd ([3]; human, plasma, intravenous, V ss, 1000 mg/m^2 Bel + 75 mg/m^2 doxorubicin, Day 5 (with doxorubicin), N = 19) was 57.6 L and the half-life ([3]; human, plasma, intravenous, t 1/2, 600 mg/m^2 Bel + 50 mg/m^2 doxorubicin, Day 5 (with doxorubicin), N: 1, individual parameter presented) was 2.53 h. The half-life ([3]; human, plasma, intravenous, t 1/2, 600 mg/m^2 Bel + 75 mg/m^2 doxorubicin, Day 5 (with doxorubicin), N: 3) was 4.83 h, the half-life ([3]; human, plasma, intravenous, t 1/2, 800 mg/m^2 Bel + 75 mg/m^2 doxorubicin, Day 5 (with doxorubicin), N: 4) was 2.14 h and the half-life ([3]; human, plasma, intravenous, t 1/2, 1000 mg/m^2 Bel + 75 mg/m^2 doxorubicin, Day 5 (with doxorubicin), N = 19) was 2.13 h. The Tmax ([3]; human, plasma, intravenous, t max, Median (min–max), 600 mg/m^2 Bel + 50 mg/m^2 doxorubicin, Day 5 (with doxorubicin), N = 3) was 0.567 h, the Tmax ([3]; human, plasma, intravenous, t max, Median (min–max), 600 mg/m^2 Bel + 75 mg/m^2 doxorubicin, Day 5 (with doxorubicin), N = 6) was 0.517 h and the Tmax ([3]; human, plasma, intravenous, t max, Median (min–max), 800 mg/m^2 Bel + 75 mg/m^2 doxorubicin, Day 5 (with doxorubicin), N = 6) was 0.533 h. For the same compound, the Tmax ([3]; human, plasma, intravenous, t max, Median (min–max), 1000 mg/m^2 Bel + 75 mg/m^2 doxorubicin, Day 5 (with doxorubicin), N = 19) was 0.633 h.
For `COc1cccc2c1C(=O)c1c(O)c3c(c(O)c1C2=O)C[C@@](O)(C(=O)CO)C[C@@H]3O[C@H]1C[C@H](N)[C@H](O)[C@H](C)O1` [doxorubicin], the “Neutropenia (all grades)” value (soft tissue sarcoma; G-CSF allowed) is listed as 37%, the Response rate (soft tissue sarcoma) is listed as 14% and the “MTD of doxorubicin in combination with belinostat” value ([2]; day 5, 3-week schedule) is listed as 75 mg/m^2. For the same compound, the “Effect of coadministration of belinostat on doxorubicin exposure” value [4] was “no effect”, the half-life ([3]; human, plasma, intravenous) was 7.6 to 10.8 h and the Tmax ([3]; human, plasma, intravenous, 75 mg/m2, Median t max, doxorubicin 50 or 75 mg/m^2, day 5, range across groups) was 0.24 to 0.5 h.
